Here are results for 23 compounds from patent US11708348B2, “Protease inhibitors for treatment of coronavirus infections” (The Scripps Research Institute, priority 2021, dated 2023).

The first experiment concerns SARS-CoV-2 strain USA-WA1/2020. Briefly: microbe, parasite or virus in culture. Format: cell-based. As to conditions: Severe acute respiratory syndrome coronavirus 2, HeLa-ACE2, 24 h, HeLa-ACE2 cells, SARS-CoV-2 infection, 24 h; cells given as a bound; read-out: EC50, uM (Hela).
Usually EC50 stands for the concentration at which the effect is half-maximal. With `CC(C)C[C@H](NC(=O)C(=O)Nc1ccccc1F)C(=O)N[C@@H](C[C@@H]1CCNC1=O)C(=O)COC(C(F)F)C(F)F` [Compound 175, N1-(2-fluorophenyl)-N2-((S)-4-methyl-1-oxo-1-(((S)-3-oxo-1-((S)-2-oxopyrrolidin-3-yl)-4-((1,1,3,3-tetrafluoropropan-2-yl)oxy)butan-2-yl)amino)pentan-2-yl)oxalamide], the EC50 was more than 1 µM.
As for `COc1cccc2[nH]c(C(=O)N[C@@H](CC(C)C)C(=O)N[C@@H](C[C@@H]3CCNC3=O)C(=O)COC(C(F)F)C(F)F)cc12` [Compound 178, 4-methoxy-N-((S)-4-methyl-1-oxo-1-(((S)-3-oxo-1-((S)-2-oxopyrrolidin-3-yl)-4-((1,1,3,3-tetrafluoropropan-2-yl)oxy)butan-2-yl)amino)pentan-2-yl)-1H-indole-2-carboxamide], the EC50 was more than 1 µM.

The same experiment, now with this note: Severe acute respiratory syndrome coronavirus 2, HeLa-ACE2, 24 h, HeLa-ACE2 cells, SARS-CoV-2 infection, 24 h; class symbols; read-out: EC50, uM (Hela).
Turning to `COc1cccc(OC)c1NC(=O)C(=O)N[C@@H](CC(C)C)C(=O)N[C@@H](C[C@@H]1CCNC1=O)C(=O)COC(F)(F)F` [Compound 164, N1-(2,6-dimethoxyphenyl)-N2-((S)-4-methyl-1-oxo-1-(((S)-3-oxo-1-((S)-2-oxopyrrolidin-3-yl)-4-(trifluoromethoxy)butan-2-yl)amino)pentan-2-yl)oxalamide], the EC50 was less than 0.05 µM.
Regarding `COc1cccc(C)c1NC(=O)C(=O)N[C@@H](CC(C)C)C(=O)N[C@@H](C[C@@H]1CCNC1=O)C(=O)COC(F)(F)F` [Compound 165, N1-(2-methoxy-6-methylphenyl)-N2-((S)-4-methyl-1-oxo-1-(((S)-3-oxo-1-((S)-2-oxopyrrolidin-3-yl)-4-(trifluoromethoxy)butan-2-yl)amino)pentan-2-yl)oxalamide], the 50% effective concentration (EC50) is less than 0.05 µM.
In the case of `COc1cccc(F)c1NC(=O)C(=O)N[C@@H](CC(C)C)C(=O)N[C@@H](C[C@@H]1CCNC1=O)C(=O)COC(F)(F)F` [Compound 166, N1-(2-fluoro-6-methoxyphenyl)-N2-((S)-4-methyl-1-oxo-1-(((S)-3-oxo-1-((S)-2-oxopyrrolidin-3-yl)-4-(trifluoromethoxy)butan-2-yl)amino)pentan-2-yl)oxalamide], the EC50 is less than 0.05 µM.
As to `CCc1cccc(CC)c1NC(=O)C(=O)N[C@@H](CC(C)C)C(=O)N[C@@H](C[C@@H]1CCNC1=O)C(=O)COC(F)(F)F` [Compound 167, N1-(2,6-diethylphenyl)-N2-((S)-4-methyl-1-oxo-1-(((S)-3-oxo-1-((S)-2-oxopyrrolidin-3-yl)-4-(trifluoromethoxy)butan-2-yl)amino)pentan-2-yl)oxalamide], the EC50 was less than 0.05 µM.
The same measure, in the same setting: with `CC(C)C[C@H](NC(=O)c1ccc2c(c1)OCO2)C(=O)N[C@@H](C[C@@H]1CCNC1=O)C(=O)COC(F)(F)F` [Compound 168, N-((S)-4-methyl-1-oxo-1-(((S)-3-oxo-1-((S)-2-oxopyrrolidin-3-yl)-4-(trifluoromethoxy)butan-2-yl)amino)pentan-2-yl)benzo[d][l,3]dioxole-5-carboxamide] the figure was 0.05 to 0.2 µM.
The same measure, in the same setting: with `CC(C)C[C@H](NC(=O)C(=O)NC1CCCCC1(F)F)C(=O)N[C@@H](C[C@@H]1CCNC1=O)C(=O)COC(F)(F)F` (stereo partly drawn) [Compound 169, N1-(2,2-difluorocyclohexyl)-N2-((S)-4-methyl-1-oxo-1-(((S)-3-oxo-1-((S)-2-oxopyrrolidin-3-yl)-4-(trifluoromethoxy)butan-2-yl)amino)pentan-2-yl)oxalamide] the figure was less than 0.05 µM; with `CC(C)C[C@H](NC(=O)C(=O)Nc1c(OC(C)C)cccc1OC(C)C)C(=O)N[C@@H](C[C@@H]1CCNC1=O)C(=O)COC(F)(F)F` [Compound 170, Nl-(2,6-diisopropoxyphenyl)-N2-((S)-4-methyl-1-oxo-1-(((S)-3-oxo-1-((S)-2-oxopyrrolidin-3-yl)-4-(trifluoromethoxy)butan-2-yl)amino)pentan-2-yl)oxalamide], less than 0.05 µM; with `CC(C)C[C@H](NC(=O)c1cc(-c2ccccc2F)on1)C(=O)N[C@@H](C[C@@H]1CCNC1=O)C(=O)COC(F)(F)F` [Compound 171, 5-(2-fluorophenyl)-N-((S)-4-methyl-1-oxo-1-(((S)-3-oxo-1-((S)-2-oxopyrrolidin-3-yl)-4-(trifluoromethoxy)butan-2-yl)amino)pentan-2-yl)isoxazole-3-carboxamide], less than 0.05 µM.
Same read-out and setting: to `CC(C)(C)C[C@H](NC(=O)C(=O)NC(C)(C)C)C(=O)N[C@@H](C[C@@H]1CCNC1=O)C(=O)COC(F)(F)F` [Compound 172, N1-(tert-butyl)-N2-((S)-4,4-dimethyl-1-oxo-1-(((S)-3-oxo-1-((S)-2-oxopyrrolidin-3-yl)-4-(trifluoromethoxy)butan-2-yl)amino)pentan-2-yl)oxalamide] belongs less than 0.05 µM.
Take `CC(C)(C)C[C@H](NC(=O)C(=O)Nc1ccccc1C(C)(C)C)C(=O)N[C@@H](C[C@@H]1CCNC1=O)C(=O)COC(F)(F)F` [Compound 173, N1-(2-(tert-butyl)phenyl)-N2-((S)-4,4-dimethyl-1-oxo-1-(((S)-3-oxo-1-((S)-2-oxopyrrolidin-3-yl)-4-(trifluoromethoxy)butan-2-yl)amino)pentan-2-yl)oxalamide]: the EC50 was less than 0.05 µM.
On the same count and under the same terms, with `CC(C)C[C@H](NC(=O)C(=O)NC1CC1)C(=O)N[C@@H](C[C@@H]1CCNC1=O)C(=O)COC(F)(F)F` [Compound 174, N1-cycl opropyl-N2-((S)-4-methyl-1-oxo-1-(((S)-3-oxo-1-((S)-2-oxopyrrolidin-3-yl)-4-(trifluoromethoxy)butan-2-yl)amino)pentan-2-yl)oxalamide] the figure was less than 0.05 µM; with `O=C(NC1CC(F)(F)C1)C(=O)N[C@@H](CC1CC1)C(=O)N[C@@H](C[C@@H]1CCNC1=O)C(=O)COC(F)(F)F` [Compound 176, N1-((S)-3-cyclopropyl-1-oxo-1-(((S)-3-oxo-1-((S)-2-oxopyrrolidin-3-yl)-4-(trifluoromethoxy)butan-2-yl)amino)propan-2-yl)-N2-(3,3-difluorocyclobutyl)-oxalamide], less than 0.05 µM; with `COCc1ccccc1NC(=O)C(=O)N[C@@H](CC(C)C)C(=O)N[C@@H](C[C@@H]1CCNC1=O)C(=O)COC(F)(F)F` [Compound 177, N1-(2-(methoxymethyl)phenyl)-N2-((S)-4-methyl-1-oxo-1-(((S)-3-oxo-1-((S)-2-oxopyrrolidin-3-yl)-4-(trifluoromethoxy)butan-2-yl)amino)pentan-2-yl)oxalamide], less than 0.05 µM.
On the same count and under the same terms, with `CC(C)(C)C[C@H](NC(=O)C(=O)NC1CC(F)(F)C1)C(=O)N[C@@H](C[C@@H]1CCNC1=O)C(=O)COC(F)(F)F` [Compound 179, Nl-(3,3-difluorocyclobutyl)-N2-((S)-4,4-dimethyl-1-oxo-1-(((S)-3-oxo-1-((S)-2-oxopyrrolidin-3-yl)-4-(trifluoromethoxy)butan-2-yl)amino)pentan-2-yl)oxalamide] the figure was less than 0.05 µM.
Still for that read-out and setting: with `CC(C)C[C@H](NC(=O)C(=O)NC(C)(C)C)C(=O)N[C@@H](C[C@@H]1CCNC1=O)C(=O)COC(F)(F)F` [Compound 180, N1-(tert-butyl)-N2-((S)-4-methyl-1-oxo-1-(((S)-3-oxo-1-((S)-2-oxopyrrolidin-3-yl)-4-(trifluoromethoxy)butan-2-yl)amino)pentan-2-yl)oxalamide] the figure was less than 0.05 µM.
On to `CC(C)(C)NC(=O)C(=O)NC(CC1CCOCC1)C(=O)N[C@@H](C[C@@H]1CCNC1=O)C(=O)COC(F)(F)F` (stereo partly drawn) [Compound 181, N1-(tert-butyl)-N2-(l-oxo-1-(((S)-3-oxo-l-((S)-2-oxopyrrolidin-3-yl)-4-(trifluoromethoxy)butan-2-yl)amino)-3-(tetrahydro-2H-pyran-4-yl)propan-2-yl)oxalamide], for which the EC50 lay within 0.2 to 0.5 µM.
Same read-out and setting: to `O=C(NC1CC(F)(F)C1)C(=O)N[C@@H](Cc1ccccc1)C(=O)N[C@@H](C[C@@H]1CCNC1=O)C(=O)COC(F)(F)F` [Compound 182, N1-(3,3-difluorocyclobutyl)-N2-((S)-1-oxo-1-(((S)-3-oxo-1-((S)-2-oxopyrrolidin-3-yl)-4-(trifluoromethoxy)butan-2-yl)amino)-3-phenylpropan-2-yl)oxalamide] belongs less than 0.05 µM.
Still for that read-out and setting: with `O=C(NC(CC1CCOCC1)C(=O)N[C@@H](C[C@@H]1CCNC1=O)C(=O)COC(F)(F)F)c1cc(-c2ccccc2F)on1` (stereo partly drawn) [Compound 183, 5-(2-fluorophenyl)-N-(1-oxo-1-(((S)-3-oxo-1-((S)-2-oxopyrrolidin-3-yl)-4-(trifluoromethoxy)butan-2-yl)amino)-3-(tetrahydro-2H-pyran-4-yl)propan-2-yl)isoxazole-3-carboxamide] the figure was less than 0.05 µM.
On the same count and under the same terms, to `O=C(N[C@@H](CC1CC1)C(=O)N[C@@H](C[C@@H]1CCNC1=O)C(=O)COC(F)(F)F)c1nnc(-c2ccc(F)cc2)o1` [Compound 184, N-((S)-3-cyclopropyl-1-oxo-1-(((S)-3-oxo-1-((S)-2-oxopyrrolidin-3-yl)-4-(trifluoromethoxy)butan-2-yl)amino)propan-2-yl)-5-(4-fluorophenyl)-1,3,4-oxadiazole-2-carboxamide] belongs 0.05 to 0.2 µM; to `CC(C)C[C@H](NC(=O)C(=O)Nc1c(C2CC2)cccc1C1CC1)C(=O)N[C@@H](C[C@@H]1CCNC1=O)C(=O)COC(F)(F)F` [Compound 185, N1-(2,6-dicyclopropylphenyl)-N2-((S)-4-methyl-1-oxo-1-(((S)-3-oxo-1-((S)-2-oxopyrrolidin-3-yl)-4-(trifluoromethoxy)butan-2-yl)amino)pentan-2-yl)oxalamide], less than 0.05 µM; to `Cc1ccc(C2(NC(=O)C(=O)N[C@@H](CC(C)C)C(=O)N[C@@H](C[C@@H]3CCNC3=O)C(=O)COC(F)(F)F)CC2)cc1` [Compound 186, N1-((S)-4-methyl-1-oxo-1-(((S)-3-oxo-1-((S)-2-oxopyrrolidin-3-yl)-4-(trifluoromethoxy)butan-2-yl)amino)pentan-2-yl)-N2-(l-(p-tyolyl)-cyclopropyl)oxalamide], less than 0.05 µM.
